Data published in patent US9169310B2 (Zealand Pharma A/S, priority 2010, dated 2015).
Starred links: 1 amine or outer side, 2 acyl side, 3 side chain; linkers in the order of their positions; H or OH if unused. Non-standard residues stand in square brackets, D forms with d. Residues, ends and D or L forms follow the SMILES beside them. Groups on a side chain read outwards from the residue. *: point of attachment. γGlu = O=C(O)[C@H](CCC(=O)[*:2])N[*:1]; Palmitoyl = CCCCCCCCCCCCCCCC(=O)*; Aib = CC(C)(N)C(=O)O

Assays:
[1] = target: T1, human GLP-1R (Homo sapiens, UniProt P43220); assay: GLP-1 receptor efficacy assay (cAMP formation, FlashPlate cAMP kit); format: cell-based; conditions: HEK293 cells expressing human GLP-1R; cAMP formed, 15 min at 37° C.
T1 construct: expressed in transfected cells
T1 sequence (P43220 24-463): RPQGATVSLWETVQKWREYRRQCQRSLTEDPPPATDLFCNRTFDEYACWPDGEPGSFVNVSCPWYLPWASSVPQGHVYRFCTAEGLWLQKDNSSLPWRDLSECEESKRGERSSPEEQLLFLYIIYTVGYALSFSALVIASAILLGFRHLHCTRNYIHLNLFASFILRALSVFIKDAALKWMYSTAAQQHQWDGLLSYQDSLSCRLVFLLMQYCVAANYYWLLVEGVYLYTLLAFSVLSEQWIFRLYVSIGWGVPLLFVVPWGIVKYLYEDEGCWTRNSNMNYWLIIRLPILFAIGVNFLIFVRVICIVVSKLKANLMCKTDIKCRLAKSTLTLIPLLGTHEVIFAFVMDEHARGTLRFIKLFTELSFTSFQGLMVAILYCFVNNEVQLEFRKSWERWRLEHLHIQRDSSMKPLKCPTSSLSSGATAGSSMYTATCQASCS
Protocol: (§1) The 5′-end primers additionally encoded a near Kozak consensus sequence to ensure efficient translation.
(§2) 48 hr after transfection, cells were seeded for limited dilution cloning and selected with 1 mg/ml G418 in the culture medium.

[2] = target: T2, human glucagon-R (Homo sapiens, UniProt P47871); assay: Glucagon receptor efficacy assay (cAMP formation, FlashPlate cAMP kit); format: cell-based; conditions: HEK293 cells expressing human glucagon-R; cAMP formed, 15 min at 37° C.; read-out: EC50 nM) GluR
T2 construct: expressed in transfected cells
T2 sequence (P47871 26-477): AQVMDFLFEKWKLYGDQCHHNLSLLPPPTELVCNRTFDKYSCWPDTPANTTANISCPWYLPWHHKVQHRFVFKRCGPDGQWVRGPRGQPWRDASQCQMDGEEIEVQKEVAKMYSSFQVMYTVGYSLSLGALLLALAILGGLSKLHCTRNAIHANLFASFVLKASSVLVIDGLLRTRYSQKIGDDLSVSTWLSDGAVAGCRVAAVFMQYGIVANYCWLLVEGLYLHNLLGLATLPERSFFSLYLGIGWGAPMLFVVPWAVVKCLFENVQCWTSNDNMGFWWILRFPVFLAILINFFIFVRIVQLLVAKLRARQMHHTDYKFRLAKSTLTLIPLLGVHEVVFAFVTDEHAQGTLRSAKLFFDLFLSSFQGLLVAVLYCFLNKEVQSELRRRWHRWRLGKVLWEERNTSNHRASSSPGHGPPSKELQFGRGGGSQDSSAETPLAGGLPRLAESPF
Protocol: as §1, §2

EC50 [1]: 0.09 nM
EC50 [2]: 0.15 nM
Structure (SMILES): CCCCCCCCCCCCCCCC(=O)N[C@@H](CCC(=O)NCCCC[C@H](NC(=O)[C@H](CO)NC(=O)[C@H](CCC(=O)O)NC(=O)[C@H](CC(C)C)NC(=O)[C@H](Cc1ccc(O)cc1)NC(=O)[C@H](CCCCN)NC(=O)[C@H](CO)NC(=O)[C@H](Cc1ccc(O)cc1)NC(=O)[C@H](CC(=O)O)NC(=O)[C@H](CO)NC(=O)[C@@H](NC(=O)[C@H](Cc1ccccc1)NC(=O)[C@@H](NC(=O)CNC(=O)[C@H](Cc1c[nH]cn1)NC(=O)C(C)(C)NC(=O)[C@@H](N)Cc1c[nH]cn1)[C@@H](C)O)[C@@H](C)O)C(=O)N[C@@H](C)C(=O)N[C@@H](C)C(=O)N[C@@H](CCC(=O)O)C(=O)N[C@@H](CCC(=O)O)C(=O)N[C@@H](Cc1ccccc1)C(=O)N[C@H](C(=O)N[C@@H](CCC(=O)O)C(=O)N[C@@H](Cc1c[nH]c2ccccc12)C(=O)N[C@@H](CC(C)C)C(=O)N[C@@H](CC(C)C)C(=O)N[C@@H](CCC(=O)O)C(=O)N[C@@H](C)C(N)=O)C(C)C)C(=O)O [Compound 31] (H-H[Aib]HGTFTSDYSKYLESK([γGlu-Palmitoyl])AAEEFVEWLLEA-NH2)
